Test system: oxidized collagen IV
Test: Binding to H2O2 treated collagen IV (decrease in <5 kDa filtrate by LCMS)
Design: species or system human
Details: for Binding to collagen, result in words: oxidized forms of collagen
Procedure: Collagen source: 1 mg/ml Collagen IV form human placenta in 0.25% acetic acid (Sigma™). The collagen was oxidixed with 500 μM H2O2 in 1×PBS for 1 hour at 37° C. The oxidized collagen IV (final=0.2 mg/ml) was then incubated with 2 μM DA-DKP or 2 μM NAT in PBS for 1 hour at 37° C. At the end of the incubation, the <5 kDa fraction was isolated by a VIVASPIN® 2 microcentrifugal filter having a molecular weight cutoff of 5,000. The <5 kDa fraction was analyzed for DA-DKP and/or NAT content using a liquid chromatograph-mass spectrometery (LCMS) method for DA-DKP analysis.

## CC(=O)N[C@@H](Cc1c[nH]c2ccccc12)C(=O)O [NAT, N-acetyl-tryptophan]
  Binding to collagen, result in words: bind to oxidized forms of collagen

## C[C@@H]1NC(=O)[C@H](CC(=O)O)NC1=O [DA-DKP, aspartyl-alanyl diketopiperazine]
2 μM, oxidized collagen IV 0.2 mg/ml, 1 hour at 37° C., alone
  Average % decrease: 26.0%
  Binding to collagen, result in words: bind to oxidized forms of collagen

From patent publication US9060968B2, “Treatment of degenerative joint disease” (AMPIO PHARMACEUTICALS, INC., priority 2011, dated 2015)
